Laboratory results: patent US20220324803A1 (Teon Therapeutics, Inc., priority 2019, published 2022)

target: T1, human Prostanoid EP4 Receptor (EP4) (Homo sapiens, UniProt P35408); assay: Prostanoid EP4 binding assay (3H-prostaglandin E2 displacement, cell membranes); settings: HEK293 cell membranes with human EP4, 3H-prostaglandin E2, 24° C.
T1 construct: expressed in transfected cells; host or cells: HEK293 (G418 selection); membranes prepared by differential centrifugation
Method: HEK293 cells transfected with human Prostanoid EP4 Receptor (EP4) are maintained in DMEM supplemented with L-Glutamine, 10% FBS and 300 μg/ml G418. Cells are harvested and membranes prepared by differential centrifugation, following lysis of the cells in the presence of protease inhibitors, for use in the receptor binding assay. EP4 binding assay is performed in 50 mM HEPES pH7.4, 5 mM MgCl2, 1 mM CaCl2) and 0.2% BSA. Testing compounds are diluted with DMSO to make 8-point 4-fold serial dilution. Cell membrane homogenates are incubated at 24° C. with ^3H-prostaglandin E2 in the absence or presence of the testing compound in assay buffer. Nonspecific binding (Low control: LC) and total binding (High control: HC) are determined in the presence or absence of saturated cold ligand Prostaglandin E2 (PGE2). Specific binding is calculated by subtracting nonspecific binding from total binding. When binding assays are completed, the reaction mixture is filtered rapidly under vacuum through glass fiber filters (GF/C, Packard) presoaked with 0.5% BSA for at least 0.5 hour at room temperature and then washed for 4 times with cold wash buffer (50 mM HEPES pH7.4, 500 mM NaCl, 0.1% BSA) using a 96-sample Perkin Elmer Filtermate Harvester (Unifilter, Packard). The filters are dried for 1 hour at 50 degrees then counted for radioactivity in a scintillation counter using Perkin Elmer Microscint 20 cocktail. ^3H trapped on filter is counted using Perkin Elmer MicroBeta2 Reader. Inhibition is calculated using following equation: % Inhibition=(1−(Assay well−Average_LC)/(Average_HC−Average_LC))×100%. The results are expressed as a percent inhibition of the control radioligand specific binding. Data are analyzed and IC50 is calculated using GraphPad Prism 5 and the model “log(inhibitor) vs. response—Variable slope”. The binding affinity of the compounds is determined by using the Cheng and Prusoff equation Ki=IC50/(1+[radioligand]/Kd).

T1 sequence (P35408 whole entry): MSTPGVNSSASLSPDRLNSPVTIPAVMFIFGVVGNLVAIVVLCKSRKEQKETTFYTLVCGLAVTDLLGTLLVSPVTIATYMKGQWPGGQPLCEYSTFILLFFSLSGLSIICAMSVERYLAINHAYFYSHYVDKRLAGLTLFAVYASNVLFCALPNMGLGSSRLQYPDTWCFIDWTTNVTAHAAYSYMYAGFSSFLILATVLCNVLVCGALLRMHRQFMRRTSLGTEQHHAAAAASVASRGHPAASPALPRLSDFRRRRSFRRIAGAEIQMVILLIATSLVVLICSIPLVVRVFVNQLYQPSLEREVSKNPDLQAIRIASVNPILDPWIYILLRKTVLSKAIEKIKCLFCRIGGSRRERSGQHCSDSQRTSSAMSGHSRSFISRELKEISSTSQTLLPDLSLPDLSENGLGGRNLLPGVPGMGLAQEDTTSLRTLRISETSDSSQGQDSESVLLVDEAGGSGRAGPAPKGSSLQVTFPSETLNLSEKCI

| Compound | Ki |
| --- | --- |
| C[C@H](NC(=O)c1ncn2cccc(Cc3ccc(C(F)(F)F)cc3)c12)c1ccc(C(=O)O)cc1 [Compound 5, 4-[(1S)-1-[[8-[[4-(trifluoromethyl)phenyl]methyl]imidazo[1,5-a]pyridine-1-carbonyl]amino]ethyl]benzoic acid] | 100 to 499 nM |
| O=C(N[C@H]1CC[C@@H](C(=O)O)C1)c1cnn2cccc(Cc3ccc(C(F)(F)F)cc3)c12 [Compound 39, (1R,3S)-3-[[4-[[4-(trifluoromethyl)phenyl]methyl]pyrazolo[1,5-a]pyridine-3-carbonyl]amino]cyclopentanecarboxylic acid] | < 100 nM |
| O=C(O)Cc1ccc(NC(=O)c2cnn3cccc(Cc4ccc(C(F)(F)F)cc4)c23)cc1 [Compound 28, 2-[4-[[4-[[4-(trifluoromethyl)phenyl]methyl]pyrazolo[1,5-a]pyridine-3-carbonyl]amino]phenyl]acetic acid] | 100 to 499 nM |
| O=C(N[C@H]1CC[C@@H](C(=O)O)CC1)c1cnn2cccc(Cc3ccc(C(F)(F)F)cc3)c12 [Compound 32, (1s,4s)-4-[[4-[[4-(trifluoromethyl)phenyl]methyl]pyrazolo[1,5-a]pyridine-3-carbonyl]amino]cyclohexanecarboxylic acid] | > 500 nM |
| O=C(N[C@H]1CC2(C1)C[C@H](C(=O)O)C2)c1ncn2cccc(Cc3ccc(C(F)(F)F)cc3)c12 (single isomer, unassigned) [Compound 6A, cis-2-[[8-[[4-(trifluoromethyl)phenyl]methyl]imidazo[1,5-a]pyridine-1-carbonyl]amino]spiro[3.3]heptane-6-carboxylic acid] | > 500 nM |
| C[C@H](NC(=O)c1cn(CCF)c2cccc(Cc3ccc(C(F)(F)F)cc3)c12)c1ccc(C(=O)O)cc1 [Compound 43, 4-[(1S)-1-[[1-(2-fluoroethyl)-4-[[4-(trifluoromethyl)phenyl]methyl]indole-3-carbonyl]amino]ethyl]benzoic acid] | < 100 nM |

Continued, values first:

| Ki | Compound |
| --- | --- |
| < 100 nM | CCn1cc(C(=O)N[C@H]2CC3(C2)C[C@H](C(=O)O)C3)c2c(Cc3ccc(C(F)(F)F)cc3)cccc21 (stereo partly drawn) [Compound 41, trans-2-[[1-ethyl-4-[[4-(trifluoromethyl)phenyl]methyl]indole-3-carbonyl]amino]spiro[3.3]heptane-6-carboxylic acid] |
| 100 to 499 nM | O=C(O)CC12CC(NC(=O)c3ncn4cccc(Cc5ccc(C(F)(F)F)cc5)c34)(C1)C2 [Compound 17, 2-[3-[[8-[[4-(trifluoromethyl)phenyl]methyl]imidazo[1,5-a]pyridine-1-carbonyl]amino]-1-bicyclo[1.1.1]pentanyl]acetic acid] |
| 100 to 499 nM | CCn1nc(C(=O)NC23CC(CC(=O)O)(C2)C3)c2c(Cc3ccc(C(F)(F)F)cc3)cccc21 [Compound 19, 2-[3-[[1-ethyl-4-[[4-(trifluoromethyl)phenyl]methyl]indazole-3-carbonyl]amino]-1-bicyclo[1.1.1]pentanyl]acetic acid] |
| < 100 nM | CCn1cc(C(=O)NC2CC3(C2)CC(C(=O)O)C3)c2c(Cc3ccc(C(F)(F)F)cc3)ccnc21 (stereo not drawn) [Compound 45, trans-2-[[1-ethyl-4-[[4-(trifluoromethyl)phenyl]methyl]-pyrrolo[2,3-b]pyridine-3-carbonyl]amino]spiro[3.3]heptane-6-carboxylic acid] |
| < 100 nM | CC(C)n1nc(C(=O)N[C@@H](C)c2ccc(C(=O)O)cc2)c2c(Cc3ccc(C(F)(F)F)cc3)cccc21 [Compound 20, 4-[(1S)-1-[[1-isopropyl-4-[[4-(trifluoromethyl)phenyl]methyl]indazole-3-carbonyl]amino]ethyl]benzoic acid] |
| 100 to 499 nM | O=C(O)CC12CCC(NC(=O)c3cnn4cccc(Cc5ccc(C(F)(F)F)cc5)c34)(CC1)CC2 [Compound 35, 2-(4-(4-(4-(trifluoromethyl)benzyl)pyrazolo[1,5-a]pyridine-3-carboxamido)bicyclo[2.2.2]octan-1-yl)acetic acid] |
